The source of these data is paper PMC12114633, “α-Glucosidase Inhibition Mechanism and Anti-Hyperglycemic Effects of Flavonoids from Astragali Radix and Their Mixture Effects” (Pharmaceuticals, 2025).

Test [1] has as its target T1, Saccharomyces cerevisiae α-glucosidase (Saccharomyces cerevisiae, UniProt P53341).
T1 construct: purchased Shanghai Yuanye Biotechnology Co., Shanghai, China Lot No. M23HS178879 (catalogue number not given)
In words: biochemical. The settings on record: IC50, α-glucosidase 0.2 U/mL, 5 mM pNPG, PBS pH 6.8, 37 °C.

Test [2] has as its target T2, α-glucosidase (Saccharomyces cerevisiae, UniProt P53341).
T2 construct: purchased Shanghai Yuanye Biotechnology Co., Shanghai, China Lot No. M23HS178879 (catalogue number not given)
In words: Inhibitory kinetic analysis (Lineweaver–Burk plot). The settings on record: Lineweaver–Burk plots, pNPG 0.31–20 mM. The format is biochemical.

In test [3] the target is T2, α-glucosidase. In words: CD spectroscopy, secondary structure of α-glucosidase (BeStSel). As to conditions: for β-turn: free enzyme 11.7; for β-sheet: free enzyme 28.8; for random coil: free enzyme 45.2; for α-helix: free enzyme 14.4. The method, then: CD spectra in the far-UV region (190–250 nm) were scanned by using a CD spectrometer (JASCO-1.5 Tokyo, Japan). […] The slit width was set to 1 nm, and the baseline was calibrated with PBS (phosphate buffered saline). CD spectra were averaged over three scans under a constant nitrogen flow, with the buffer signal subtracted. The results were analyzed using the BeStSel database (https://bestsel.elte.hu/index.php, accessed on 16 May 2025).

Test [4] concerns the target T2, α-glucosidase. In words: biochemical. The format is binding. As for the experimental part:
SPR analysis was performed using the Biacore 8K system (GE Healthcare, Uppsala, Sweden). α-Glucosidase (0.05 mg/mL) was fixed on the CM5 sensor chip by an amine coupling kit. Subsequently, various concentrations of the 16 flavonoids dissolved in 5% DMSO were continuously injected onto the surface of α-glucosidase coated surface. After each sample injection, the sensor chip surface was washed and regenerated with running buffer (PBS) at a flow rate of 30 µL/min. According to the 1:1 Langmuir model, the equilibrium dissociation constant (KD) was calculated by the Biacore evaluation software. For sensorgrams without significant kinetic features, the KD values were calculated using the steady-state analysis.

For test [5], the target named is T2, α-glucosidase. In words: Mixture effects of flavonoid combinations on α-glucosidase. It is filed as biochemical. The settings on record: calculated from the dose–response curve.
The test system of test [6] is normal C57BL/6J mice. In words: Oral sucrose test, postprandial blood glucose. As to conditions: for Blood glucose levels: 30 min after sucrose 4 g/kg, n = 8, in mmol/L (unit assumed); for Rate of blood glucose reduction: vs model group, 30 min after sucrose. The format is in vivo.
Test [7] addresses α-glucosidase. The settings on record: literature values, reference given; read-out: IC50 in References; cited from earlier work.
The test system of test [8] is blood glucose. As to conditions: 50 mg/kg, cited from earlier work.
The mark [9] stands for this setting: molar ratio 10:1, α-glucosidase 4 μM.
Where [10] appears, read: molar ratio 40:1, α-glucosidase 4 μM.

Like-named read-outs stand apart in the source and are kept apart here.

T2 sequence (P53341 whole entry): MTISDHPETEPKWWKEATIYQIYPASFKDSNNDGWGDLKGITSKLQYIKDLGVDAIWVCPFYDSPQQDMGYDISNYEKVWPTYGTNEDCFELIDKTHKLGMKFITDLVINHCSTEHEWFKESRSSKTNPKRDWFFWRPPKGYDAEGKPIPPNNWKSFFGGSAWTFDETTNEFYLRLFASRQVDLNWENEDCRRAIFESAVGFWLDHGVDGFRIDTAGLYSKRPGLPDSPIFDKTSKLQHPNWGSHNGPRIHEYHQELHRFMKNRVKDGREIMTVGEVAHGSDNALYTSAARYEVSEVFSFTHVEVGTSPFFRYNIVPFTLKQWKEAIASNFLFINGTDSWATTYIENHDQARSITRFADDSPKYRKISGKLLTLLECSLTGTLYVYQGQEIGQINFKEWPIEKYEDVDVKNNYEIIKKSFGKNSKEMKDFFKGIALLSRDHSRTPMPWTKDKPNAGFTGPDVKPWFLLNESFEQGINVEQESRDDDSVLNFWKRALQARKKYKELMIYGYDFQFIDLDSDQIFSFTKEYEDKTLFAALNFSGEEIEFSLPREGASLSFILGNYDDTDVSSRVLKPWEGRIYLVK
T1 sequence (P53341 whole entry): as above

With `COc1ccc(-c2coc3cc(O[C@@H]4O[C@H](CO)[C@@H](O)[C@H](O)[C@H]4O)ccc3c2=O)cc1O` [C16, calycosin-7-O-glucoside], the 50% inhibitory concentration (IC50) – broadly, the concentration needed to halve the response being measured – in test [1] is 563 ± 43.6 µM; in test [7], 174 µM. Moreover, in test [2], the “type of inhibition on α-glucosidase” value is listed as “mixed-type inhibitors”. The results for the β-turn in test [3] (setting [9]) and in test [3] (setting [10]) were 11.7% and 11.5%, respectively. In addition, the β-sheet in test [3] (setting [9]) turned out to be 29.5%; in test [3] (setting [10]) it was 27.7%. Also, the random coil in test [3] (setting [9]) stood at 45.6%; in test [3] (setting [10]), 48.6%. Besides, the α-helix was 12.1% in test [3] (setting [10]) and 13.3% in test [3] (molar ratio compound:α-glucosidase 10:1, α-glucosidase 4 μM). In test [4], the equilibrium dissociation constant (Kd) (in general, the equilibrium constant for the complex coming apart) turned out to be 364 µM. Moreover, the IC05 in test [5] is 150.00 µM. In addition, the values for the Blood glucose levels in test [6] (10 mg/kg oral), in test [6] (25 mg/kg oral) and in test [6] (50 mg/kg oral) were 15.01 ± 1.15, 13.71 ± 0.77 and 12.78 ± 0.74, respectively. The “Rate of blood glucose reduction” value in test [6] (10 mg/kg oral) was 2.75%; in test [6] (25 mg/kg oral), 11.17%; in test [6] (50 mg/kg oral), 17.25%.

For the compound `C[C@@H]1O[C@@H](OC[C@H]2O[C@@H](Oc3cc4c(O)cc(O)cc4[o+]c3-c3ccc(O)cc3)[C@H](O)[C@@H](O)[C@@H]2O)[C@H](O)[C@H](O)[C@H]1O` [pelargonidin-3-O-rutinoside], the “reduction of blood glucose” value in test [8] (ref 52 (Xu et al.)) was 18.5%.

Consider `O=c1c(O)c(-c2ccc(O)c(O)c2)oc2cc(O[C@@H]3O[C@H](CO)[C@@H](O)[C@H](O)[C@H]3O)c(O)c(O)c12` [quercetagetin-7-O-glucoside], for which the “reduction of blood glucose” value in test [8] (ref 51 (Tian et al.)) is given as 16.7%.
